The test system of one data set is UCI101 tumor xenografts. Description: Tumor necrosis in H&E sections three days after treatment. To be noted: tirapazamine 60 mg/kg ip, 60 min later stilbene 5c 50 mg/kg ip; sacrificed three days later.
The next data set has as its system UCI tumor xenograft. Description: Microvascular density by anti-CD34 immunohistochemistry and H & E staining of tumor and normal organs. The data set is classed as in vivo, nude mice. Here is the method: FIGS. 2A-B. Stilbene 5c treatment decreases microvascular density in tumor but not in normal organs. Nude mice with UCI tumor xenograft were treated with 10% DMSO or stilbene 5c at 50 mg/kg intraperitoneally. Mice were sacrificed at 4 hours after injection, and various organs and tumor were harvested for fixation and standard hematoxylin and eosin (H & E) staining. Immunohistochemical staining of each section was performed with anti-CD34 antibody to quantify the microvascular density. In the original immunohistochemical stained sections, brown staining indicated a positive signal for CD34 staining. (A) Shown are the black and white pictures in 200× fold magnification. The numbers of positive signals in each CD34 stained picture are counted and are shown in the right lower corner of each panel. (B) The averages and standard deviations of 4 different fields that show the most abundant microvascular density are plotted in a histogram. The sections from kidney cannot be scored due to the fact that all vessels around renal tubules are fused into a large network in the picture.
After mice were sacrificed, major organs and tumors were dissected and fixed in 10% formalin. Tissues were embedded in paraffin and sections were stained with H & E, and with antibody against CD34 for quantification of microvascular density. The scoring of microvascular density was based on the methods described by Weidner et al. by counting the CD34-positive signals in a photo frame of 200× magnification using Nikon ECLIPSE E800M microscope equipped with a Diagnostic Instruments Spot RT CCD camera.
We took tissues that were studied with DCE-MRI to investigate the vascular density of tumor and correlate with the results from DCE-MRI-derived vascular perfusion studies. We particularly examined sections from heart and brain, where the toxicity of colchicine site inhibitors was observed. Tissue sections were stained with standard H & E and anti-CD34 (an endothelial marker) antibody by immunohistochemistry staining. […] There was also no histological difference in tumor either. We then used anti-CD34 staining to score microvascular density in tumor and various normal organs (54, 55). The results are indicated at the right lower corner of each panel except kidney, which cannot be scored due to fusion of the capillary network rather than discrete dots or tubes in appearance.

For another data set, the system named is UCI-101 tumor xenograft. The data set can be described thus: Tumor growth, stilbene 5c with or without bevacizumab. The data set is classed as in vivo, nude mice. The method, then:
FIG. 4. Efficacy of stilbene 5c in vivo and enhanced effect by bevacizumab. Nude mice were injected with UCI-101 cells subcutaneously and mice are treated with stilbene 5c at 20 mg/kg/day Monday-Friday with or without bevacizumab 10 mg/kg twice a week. Tumor volume was calculated by the long and short axes. Each group contains 8 mice and the average tumor volumes and standard deviations were plotted against days.
Tumor cell lines used in this study include UCI-101 ovarian cancer cells and Hep3B hepatocellular carcinoma cells. Cells are grown in IMEM and DMEM, respectively, supplemented with 10% fetal bovine serum, glutamine, and penicillium/streptomycin in 5% CO2 humidified environment. When cells were grown to 80% confluent, cells were harvested with 1% trypsin and washed with phosphate-buffered saline three times before injected subcutaneously into nude mice. For mouse xenograft studies, 2×10^6 tumor cells were injected in the back subcutaneously. Nude mice were purchased from NCI Development Therapeutic Program as described. Tumor size was monitored by long and short axes (a and b, respectively) by a caliber and tumor volume was calculated by the formula ab^2/2. […]. Treatment with AAA bevacizumab was done by tail vein injection at a dose of 10 mg/kg.
Next we used ovarian cancer UCI101 cells to study the in vivo efficacy of stilbene 5c We first administered stilbene 5c with intraperitoneal injection at 25 mg/kg three times a week. Tumor volume was calculated by measuring the long and short axes. […] The failure could be due to the possibility that intermittent dosing leaves a viable rim of tumor, which survives the treatment of VDAs by getting nutritional and blood support from surrounding normal vasculature. When treatment with VDAs is stopped, the viable rim of tumor grows quickly. Tumor vasculature recovers quickly by recruitment of the mobilized endothelial progenitor cells. Based on this rationale, we combined stilbene 5c with bevacizumab, which was used to neutralize VEGF secreted by UCI-101 tumor cells. […]

The test system of another data set is UCI-101 tumor xenografts. The data set can be described thus: Tumor xenograft size after multiple dosing (days 8, 10, 12). It is filed as in vivo, nude mice. To be noted: ip on days 8, 10 and 12; stilbene 5c 50 mg/kg, tirapazamine 60 mg/kg; day 14; 6 mice per group.

Experimental for UCI-101 tumor xenografts: The long and short axes of tumor were measured to calculate tumor size and plotted against days. Each treatment group contains 6 mice.
Mice were then sacrificed at day 14. The long and short axes of tumors were measured to calculate tumor size and plotted against days. Each treatment group contains 6 mice.
Tumor cell lines used in this study include UCI-101 ovarian cancer cells and Hep3B hepatocellular carcinoma cells. Cells are grown in IMEM and DMEM, respectively, supplemented with 10% fetal bovine serum, glutamine, and penicillium/streptomycin in 5% CO2 humidified environment. When cells were grown to 80% confluent, cells were harvested with 1% trypsin and washed with phosphate-buffered saline three times before injected subcutaneously into nude mice. For mouse xenograft studies, 2×10^6 tumor cells were injected in the back subcutaneously. Nude mice were purchased from NCI Development Therapeutic Program as described. Tumor size was monitored by long and short axes (a and b, respectively) by a caliber and tumor volume was calculated by the formula ab^2/2. […] Treatment with AAA bevacizumab was done by tail vein injection at a dose of 10 mg/kg.
Next we measured the size of tumor xenografts after multiple dosing. Nude mice were injected subcutaneously with UCI-101 cells and tumor became visible after day 7. […] Tumor xenografts were measured and sizes are plotted in FIG. 7.
Experimental for UCI101 tumor xenografts: Mice were sacrificed three days later and tumors were harvested for H&E section. […] The portion of tumor that stained darker is viable, whereas the portion in lighter color is the necrotic area.
After 60 min, stilbene 5c was administered intraperitoneally at 50 mg/kg, which has been established to be capable of inducing profound tumor hypoxia within minutes (FIG. 3). […] Mice were then sacrificed three days later. Tumors were harvested and the center portion of tumor was sliced and analyzed with histological section and H&E staining.

As for `COc1cc(/C=C\c2ccc(OC)c(N)c2)cc(OC)c1` [stilbene 5c, cis-3, 4′, 5-trimethoxy-3′-aminostilbene], the “area of tumor necrosis (H&E, qualitative)” value in the data set with UCI101 tumor xenografts is given as “very small areas of tumor necrosis”. Also, in the data set with UCI tumor xenograft (50 mg/kg intraperitoneally, 4 hours after injection, vs 10% DMSO), the “decrease of tumor vascular density (CD34)” value is recorded as roughly 4 fold. For the same molecule, in the data set with UCI tumor xenograft (after stilbene 5c treatment), the “H & E staining changes in major organs” value is on record as “did not show any significant changes” and the “microvascular density of tumor decreased to (CD34)” value is reported as “nearly one fourth”. Further, in the data set with UCI tumor xenograft (after stilbene 5c treatment 50 mg/kg intraperitoneally), the “microvascular density of normal organs (heart, liver, kidney, brain)” value is listed as “does not change”. In the data set with UCI-101 tumor xenograft (intraperitoneal 25 mg/kg three times a week), the “difference in tumor growth between control and treated mice” value is on record as “did not detect any difference”. Further, in the data set on UCI-101 tumor xenograft (stilbene 5c 20 mg/kg/day Monday to Friday for two weeks, bevacizumab 10 mg/kg twice a week for 5 doses), the tumor growth suppression entry is recorded as “about 45%”. Moreover, in the data set with UCI-101 tumor xenografts, the “size of tumor compared with the control” value is listed as “about 50%”.

For the origin of these results see patent US10159676B2, “Induction of tumor hypoxia for cancer therapy” (Virginia Commonwealth University, priority 2008, dated 2018).
